This is an account of results in patent US5185366A, “Method for treatment and prevention of diseases caused by enveloped viruses, including herpes simplex virus types 1 and 2 diseases, using 3,4-dihydroxy-2H-benzopyran-2H-one” (Ohio State University Research Foundation, priority 1990, dated 1993).

Read-outs that look alike come from different tables or passages of the source.

The subject of data set [1] is human immunodeficiency virus (HIV). The conditions noted are these: cited from earlier work.
Data set [2] relates to HSV. The conditions noted are these: cited from earlier work; for extracellular inactivation of HSV: 0.5 mM.
In data set [3] the test system is hepatitis B virus (HBV). Conditions: 5-250 μg/mL, Kessler et al.; cited from earlier work.
The subject of data set [4] is HBV DNA polymerase. Conditions: 5-250 μg/mL, Kessler et al.; cited from earlier work.
Data set [5] relates to enveloped viruses. Conditions: cited from earlier work.
The test system of data set [6] is viruses having no lipids. The conditions noted are these: cited from earlier work.
Data set [7] has as its system enveloped virus .phi. 6. The conditions noted are these: cited from earlier work.
Data set [8] relates to cellular protein synthesis. The conditions noted are these: Pottage et al., cited from earlier work.
Data set [9] has as its system HBV surface antigen. The conditions noted are these: Pottage et al., cited from earlier work.
The test system of data set [10] is herpes simplex virus type 1 (HSV-1). Conditions: cited from earlier work.
Data set [11] deals with HSV-2. As to the kind of experiment: Extracellular activity, inhibition of plaque forming units, HSV-2.
Data set [12] relates to HSV-2. As to the kind of experiment: Intracellular activity, inhibition of plaque forming units, HSV-2. Format: cell-based, Herpes simplex virus type 2.
Data set [13] deals with Buffalo green monkey kidney (BGM 70) cells. As to the kind of experiment: [3H]-thymidine uptake cytotoxicity. Format: cell-based. Conditions: for inhibition at 0.4 µM / inhibition at 1.6 µM / inhibition at 2.5 µM / inhibition at 10 µM: Chlorocebus sabaeus, read-out: % Inhibition of [3H]-Thymidine Incorporated; for inhibition at 0.4 µM: 0.4 μmol/L; for inhibition at 1.6 µM: 1.6 μmol/L; for inhibition at 2.5 µM: 2.5 μmol/L; for inhibition at 10 µM: 10.0 μmol/L.

Data set [14] in a line: Inhibition of cell growth (microscopic cell count). Format: cell-based, Buffalo green monkey. Conditions: monkey, bgm-70 cells, read-out: % Reduction of cell growth. As to the method: a MASHII cell harvester and placed in a scintillation counter to determin
incorporation of labelled compound and level of toxicity. BGM 70 cells ar
seeded at a concentration of […] per well in a 24well tissue cultur
plate. Cells are planted in 2 mL of growth medium with or without the tes
compound and are incubated at 37° C. for 38 hours. At 24 hours
medium is removed from onehalf of the plates and the cells are fixed and
stained with crystal violet. The remaining cultures are fixed and stained
^b BGM 70 cells are counted microscopically and comparisons are made.
Experiments are performed blindly by assigning each compound concentratio
a letter code. The code is broken after the cells are counted.
The effect of the compounds on the inhibition of cell growth is determined using BGM-70 cells grown in vitro. For this assay, BGM 70 cells are seeded at a concentration of approximately 70 cells per well in 24-well tissue culture plates. Cells are planted in 2 ml of growth medium with or without the test compound and are incubated at 37° C. for 48 hours. At 24 hours, cells from one half of the plates are fixed and stained with crystal violet. The remaining cultures are fixed and stained at 48 hours. Cells are counted microscopically and comparisons are made between non-treated (control) and treated cells.

Take nonoxynol-9: in [1], the “inactivation of HIV” value is “inactivate HIV”.
With `CCCCCCCCCCCCCCO` [tetradecanol], the “extracellular inactivation of HSV” value in data set [2] is on record as 90-100%.
For benzalkonium chloride, the “inactivation of HIV” value in data set [1] is on record as “inactivate HIV”. Besides, in data set [1] (general fluids of seropositive individuals), the “concentration destroying the infectiousness of HIV” value is given as 0.05%.
As for `C[C@@H]1[C@H](O)[C@@H](C)/C=C/C=C/C=C/C=C/C=C/C=C/C=C/[C@H](O[C@@H]2O[C@H](C)[C@@H](O)[C@H](N)[C@@H]2O)C[C@@H]2O[C@](O)(C[C@@H](O)C[C@@H](O)[C@H](O)CC[C@@H](O)C[C@@H](O)CC(=O)O[C@H]1C)C[C@H](O)[C@H]2C(=O)O` [amphotericin B], in data set [3], the “effect on HBV particle / envelope” value was “changes in electron microscopic appearance of the virus, increased penetration of negative stain into the lipid envelope, disruption of the particle” and the “increase in density of HBV” value was 1.165 to 1.225 g/mL. Also, the “HBV DNA polymerase activity” value in data set [4] is listed as “concentration dependent increase in HBV DNA polymerase activity”.
As to `Cc1cc(C(C)(C)C)c(O)c(C(C)(C)C)c1` [BHT, butylated hydroxytoluene], the IC50 in [2] (Snipes et al., read-out: concentration causing 50% inactivation of HSV) was 70 to 160 µM. The “inactivation of viruses that contain lipids” value in data set [5] was “readily inactivated”. For the same compound, the “inactivation of viruses having no lipids” value in [6] is reported as “comparatively insensitive”.
Regarding `CCOC(=O)C(C)(C)Oc1ccc(Cl)cc1` [clofibrate, clofibric acid ethyl ester], the antiherpetic activity entry in data set [2] (Steinhart et al.) is “antiherpetic activity”.
For the compound `CCCCC[C@@H](O)[C@H]1C(=O)O[C@H](C)[C@@H](O)/C=C/C=C/C=C/C=C/C=C(\C)[C@@H](O)C[C@H](O)C[C@H](O)C[C@H](O)C[C@H](O)C[C@H](O)C[C@@H]1O` [filipin], the “inactivation of enveloped viruses” value in [5] is “inactivates enveloped viruses”.
Turning to `C/C(=C\CO)CCC[C@H](C)CCC[C@H](C)CCCC(C)C` [phytol], the “concentration inhibiting HSV” value in [2] was 0.01 to 0.1 mM. Besides, in data set [7], the “concentration inhibiting enveloped virus .phi. 6” value is on record as 10^-6 to 10^-4 mM.
Turning to `CC(=O)N1CCN(c2ccc(OCC3COC(Cn4ccnc4)(c4ccc(Cl)cc4Cl)O3)cc2)CC1` (centres unmarked) [Ketoconazole], in [8] (10 μg/mL), the “reduction in protein synthesis” value is listed as 38%. Besides, the cellular protein synthesis result in data set [8] is on record as “decrease in cellular protein synthesis”. Further, the “inhibition in HBV surface antigen production” value in data set [9] (10 μg/mL) is reported as 72%. The “HBV surface antigen production” value in data set [9] is reported as “non-specifically inhibits HBV surface antigen production”.
As to `CCCCCCCCCCO` [decanol], the “extracellular inactivation of HSV” value in data set [2] is listed as 90-100%.
Take `CCCCCCCCCCCCO` [dodecanol]: in [2], the “extracellular inactivation of HSV” value was 90-100%.
Take `CC(C)(Oc1ccc(Cl)cc1)C(=O)O` [clofibric acid, reference compound]: in [10] (500 μM, Mehl), the “anti-HSV-1 activity (inhibition)” value was 45%. The “inhibition of replication of HSV-1” value in data set [10] (BGM 70 cells) is reported as “inhibit replication of herpes simplex virus type 1 (HSV-1)”. In addition, in [11] (500 μM, P>0.05), the “inhibition, extracellular treatment of HSV-2” value was “no significant (P>0.05) inhibition”. Further, the inhibition at 500 µM in [12] (Human alphaherpesvirus 2, 500 μM, one experiment, n=3 wells, P<0.02, read-out: inhibition (PFU), virus-infected cells) worked out at 66 ± 6%.
Turning to `CC1(c2ccc(Cl)cc2)OC(=O)C(O)=C1O` (racemic) [Compound 1], the inhibition at 0.4 µM worked out at 0% in data set [13] (24 h); 0% in data set [13] (48 h); 0% in [13] (72 h); 0% in data set [11] (Human alphaherpesvirus 2, read-out: % Inhibition of PFU, EA (extracellular activity), HSV-2, 0.4 μmol/L); 0% in [12] (Human alphaherpesvirus 2, HSV-2, 0.4 μmol/L, read-out: % Inhibition of PFU, IA (intracellular activity)). Also, the inhibition at 1.6 µM in data set [13] (24 h) worked out at 16.7 ± 12.7%; in data set [13] (48 h), 14.5 ± 15.5%; in data set [13] (72 h), 39.9 ± 15.7%; in data set [11] (Human alphaherpesvirus 2, read-out: % Inhibition of PFU, EA (extracellular activity), HSV-2, 1.6 μmol/L), 1.5 ± 0.1%; in [12] (Human alphaherpesvirus 2, HSV-2, 1.6 μmol/L, read-out: % Inhibition of PFU, IA (intracellular activity)) it was 8 ± 2.4%. Besides, the inhibition at 2.5 µM in [13] (24 h) was 66.7 ± 5.8%; in [13] (48 h) it was 74.3 ± 9.3%; in [13] (72 h), 53.9 ± 16.3%. Besides, the figures for the inhibition at 10 µM in data set [13] (24 h), in [13] (48 h) and in [13] (72 h) were 95 ± 0.4%, 98.6 ± 0.5% and 98.2 ± 0.8%, respectively. Also, the “toxicity ([3H]-thymidine uptake and/or cell growth)” value in data set [13] (at concentrations of 10 μM or less) is on record as “display toxicity”. Besides, in [14] (24 h, 0.4 μmol/L), the inhibition at 24 h, 0.4 µM is 12 ± 4%. In [14] (24 h, 1.6 μmol/L), the inhibition at 24 h, 1.6 µM was found to be 54 ± 8.6%. Besides, in data set [14] (24 h, 2.5 μmol/L), the inhibition at 24 h, 2.5 µM worked out at 60 ± 9.1%. Moreover, in data set [14] (48 h, 0.4 μmol/L), the inhibition at 48 h, 0.4 µM was found to be 16 ± 3.6%. Moreover, the inhibition at 48 h, 1.6 µM in data set [14] (48 h, 1.6 μmol/L) was 67 ± 12.1%. Moreover, the inhibition at 48 h, 2.5 µM in data set [14] (48 h, 2.5 μmol/L) was 90 ± 4.6%.
